From ChEMBL document CHEMBL4229409, “Rational design of novel irreversible inhibitors for human arginase” (Bioorg Med Chem, 2018) come the findings set out here.

SMILES strings stand for the structures. The source made the active and inactive calls. The rule behind the calls is not given here.

Assay [1] can be described thus: Reversible inhibition of human arginase using thioarginine as substrate measured up to 360 mins by UV micro plate method.
The target in assay [2] is T1, Arginase-1 (Homo sapiens) (UniProt P05089).
T1 sequence (whole entry): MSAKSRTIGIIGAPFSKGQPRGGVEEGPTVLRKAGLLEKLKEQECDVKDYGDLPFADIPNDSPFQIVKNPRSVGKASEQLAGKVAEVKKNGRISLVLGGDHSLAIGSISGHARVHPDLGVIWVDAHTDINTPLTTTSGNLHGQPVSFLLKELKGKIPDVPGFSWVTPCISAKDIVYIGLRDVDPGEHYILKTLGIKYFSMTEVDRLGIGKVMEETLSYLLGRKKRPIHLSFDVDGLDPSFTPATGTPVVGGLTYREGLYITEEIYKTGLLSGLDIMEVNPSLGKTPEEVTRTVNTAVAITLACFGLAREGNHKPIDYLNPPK
Nature of the assay: Binding affinity to human arginase 1 at Thr135 residues preincubated with compound at 500 uM followed by chymotrypsin addition measured after 16 hrs by tandem mass spectrometric method.

In assay [3] the target is T2, Arginase-2, mitochondrial (Homo sapiens, UniProt P78540).
T2 sequence (P78540 whole entry): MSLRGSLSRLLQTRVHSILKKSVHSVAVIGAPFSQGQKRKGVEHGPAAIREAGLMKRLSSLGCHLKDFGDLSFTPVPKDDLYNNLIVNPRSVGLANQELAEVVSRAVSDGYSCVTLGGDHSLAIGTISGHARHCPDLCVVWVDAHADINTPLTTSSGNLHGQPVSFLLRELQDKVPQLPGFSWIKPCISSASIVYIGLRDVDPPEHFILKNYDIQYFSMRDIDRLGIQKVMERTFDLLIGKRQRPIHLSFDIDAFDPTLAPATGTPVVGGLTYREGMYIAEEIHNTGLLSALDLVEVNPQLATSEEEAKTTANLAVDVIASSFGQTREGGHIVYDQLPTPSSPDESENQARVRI
The assay is described as follows: Irreversible inhibition of human arginase 2 using thioarginine as substrate measured up to 360 mins by UV micro plate method.

Assay [4] addresses T1, Arginase-1 (Homo sapiens). Nature of the assay: Irreversible inhibition of human arginase 1 assessed as inactivation rate constant using thioarginine as substrate measured up to 360 mins by UV micro plate method.
Assay [5] has as its target T3, Arginase-2, mitochondrial (Homo sapiens) (UniProt P78540).
T3 sequence (whole entry): T2 sequence (P78540 whole entry)
Nature of the assay: Irreversible inhibition of human arginase 2 assessed as inactivation rate constant using thioarginine as substrate measured up to 360 mins by UV micro plate method.

The target of the next assay is T4, Arginase-1 (Homo sapiens, UniProt P05089).
T4 sequence (P05089 whole entry): T1 sequence (whole entry)
The assay is described as follows: Irreversible inhibition of human arginase 1 using thioarginine as substrate measured up to 360 mins by UV micro plate method.

`N[C@@H](CSCCB(O)O)C(=O)O`: in assay [1], the Ki turned out to be 20 µM.
Regarding `N=C(N)Nc1ccc(C(F)C(=O)O)cc1` (stereo not given), the result in assay [2] was Active. Also, the values for the Ki (in assay [3]; on Arginase-1) were 322 µM and 275 to 307 µM, respectively. Also, the Kinact was 0.029 to 0.031 min⁻¹ in assay [4] and 0.048 min⁻¹ in assay [5].
With `CC(=O)OC(C(=O)O)c1ccc(NC(=N)N)cc1` (stereo not given), the figures for the Ki (in assay [3]; at Arginase-1) were 437 µM and 382 µM, respectively. Also, the Kinact in assay [4] is 0.032 min⁻¹; in assay [5], 0.033 min⁻¹.
